Measured values as given in the NIST ThermoML archive (doi:10.1021/je400122k).

Conditions: Liquid; for speed of sound: Pulse-echo method; for mass density: Vibrating tube method

CCCCCCCCCCCCCC(=O)OCC [ethyl tetradecanoate]
Conditions	mass density, 343.15 K [kg/m3]	mass density, 353.15 K [kg/m3]	mass density, 363.15 K [kg/m3]	mass density, 373.15 K [kg/m3]	mass density, 383.15 K [kg/m3]	mass density, 393.15 K [kg/m3]	speed of sound, 343.15 K [m/s]	speed of sound, 363.15 K [m/s]	speed of sound, 383.15 K [m/s]	speed of sound, 403.15 K [m/s]
100 kPa	–	–	–	–	–	–	–	1120	1056.9	996.1
101.3 kPa	–	815.6	808.4	800.1	792.1	784.5	–	–	–	–
10000 kPa	–	823.9	816.6	809.9	802.1	794.6	–	1181.8	1122.3	1067.2
20000 kPa	–	831.8	824.6	817.9	810.7	803.7	–	1236.4	1181.7	1130.3
30000 kPa	–	838.7	831.8	825.5	818.5	812	–	1287.1	1235.6	1186.1
40000 kPa	–	845	838.6	832.4	825.9	819.5	–	1334.2	1284.7	1237.3
50000 kPa	–	850.8	845	838.8	832.5	826.4	–	1377.5	1330.3	1284.9
60000 kPa	–	856.4	850.6	844.9	838.9	832.9	–	1418.8	1372.3	1327.9
70000 kPa	–	861.8	856.1	850.6	845	839.8	–	1457.6	1412.6	1370
80000 kPa	–	866.9	861.3	856.2	850.5	845.6	–	1495.5	1450.4	1409.7
90000 kPa	877.5	871.8	866.3	861.3	855.9	851	1576.2	1531	1486.9	1447.5
100000 kPa	882.1	876.4	871.1	866.1	861	855.6	1609.1	1564.6	1521.7	1483.2
